These results are taken from patent publication US8785447B2, “Use of dopamine D3 receptor ligands for the production of drugs for treating renal function disorders” (AbbVie Deutschland GmbH & Co. KG, priority 2000, dated 2014).

Holding throughout (assay type): in vivo, male Sprague-Dawley rats
In experiment [1] the test system is animal experimental model of diabetic nephropathy (rats with streptozotocin-induced diabetes mellitus). In words: 24-hour urine collection (protein by Lowry, albumin by RIA) in streptozotocin-diabetic rats. The note with it: for albuminuria / proteinuria: 24-hour urine of conscious diabetic rats after 12 days, via drinking water, S-sulpiride 25 mg/kg/d, D3-A1 5 mg/kg/d; for albuminuria: untreated diabetic 118 vs. time control 23; for proteinuria: untreated diabetic 133 vs. time control 46. How it is done: (§1) The action of the dopamine D3 antagonists was investigated in an animal experimental model of diabetic nephropathy. Rats in which diabetes mellitus had been induced by administration of streptozotocin developed marked glomerular hyperfiltration within 14 days.
(§2) 60 mg/kg of streptozotocin, dissolved in citrate buffer (21 mg of citric acid per 1 ml of double-distilled water), were injected intraperitoneally into male Sprague-Dawley rats having a body weight of 180 to 200 g. Diabetes mellitus was regarded as being induced successfully when an evening glucose concentration of at least 180 mg/dl was found in the venous blood after 24 hours. The blood glucose values of the diabetic animals were between 350 and 450 mg/dl. Insulin substitution was thus not necessary. The body weight of the experimental animals increased about 5 g per day. The same volume of citrate buffer was injected intraperitoneally into nondiabetic time control animals (CON). They had blood glucose values of between 90 and 1120 mg/dl.
(§3) Immediately after successful determination of diabetes mellitus, the animals were accommodated in normal cages with standard feed (Altromin 1320) and mains water ad libitum. By means of different medicinal treatment (administration of the substances via the drinking water), the following four experimental groups were formed: • CON (1) nondiabetic animals without additional treatment (time control) • DM-VHC (2) diabetic animals without additional treatment (diabetic control) • DM-SUL (3) diabetic animals with S-sulpiride treatment (25 mg/kg/d) • DM-D3 (4) diabetic animals with D3-A treatment (D3-A1: D3 receptor antagonist according to Example (7) (5 mg/kg/d); D3-A2: D3 receptor antagonist according to Example (11))
(§4) The volume of liquid absorbed was recorded daily. Every third day, the body weight and the blood glucose level of the animals were determined. After 12 days, the experimental animals were kept in metabolic cages for 24 hours for urine collection. The protein concentration in the urine was determined according to the standard method described by Lowry. For this, after incubation of the samples with 1 M NaOH a color reaction was induced with Folin reagent (phenol-Ciocalteu's), whose intensity was quantified photometrically. The albumin concentration in the urine was determined by a radioimmunoassay (RIA) specific for albumin. A kit from Biermann (KHAD 2: albumin RIA), was employed which used a polyclonal antibody against human serum albumin (goat) and ^125I-labeled human serum albumin as a tracer. After 14 to 16 days, the animals were anesthetized with thiopental (80 mg/kg) and polyethylene catheters were placed in the jugular vein and the carotid artery and also in the urinary bladder. The glomerular filtration rate (GFR) was determined by means of the renal ^3H-inulin clearance. The mean arterial blood pressure (MAP) and the heart rate (HR) were furthermore recorded during the experiment. At the end of the clearance experiments, the kidneys were removed and subjected to a histopathological examination.

Experiment [2] shares this test system. As to the kind of experiment: Histopathological examination of the kidneys of streptozotocin-diabetic rats. The settings on record: for structural intrarenal changes occurring in diabetic nephropathy: comparison of the treatment groups; for glomerular hypertrophy (enlargement of the glomeruli): mean of 20 microscopically measured areas, S-sulpiride 25 mg/kg/d, D3-A1 5 mg/kg/d. How it is done: as §2, §3, §4

Experiment [3] shares this test system. In words: Clearance investigation (renal 3H-inulin clearance, GFR) in anesthetized streptozotocin-diabetic rats. The note with it: for glomerular filtration rate (GFR): anesthetized diabetic rats after 14 to 16 days, 3H-inulin clearance, S-sulpiride 25 mg/kg/d, D3-A 5 mg/kg/d, untreated diabetic 1.10 vs. time control 0.83. How it is done: as §1, §2, §3, §4

Experiment [4] has the same test system. In words: Kidney wet weight of streptozotocin-diabetic rats. How it is done: as §2, with “[…]. […]” for “1120 mg/dl.”
The volume of liquid absorbed was recorded daily. Every third day, the body weight and the blood glucose level of the animals were determined. […] The protein concentration in the urine was determined according to the standard method described by Lowry. For this, after incubation of the samples with 1 M NaOH a color reaction was induced with Folin reagent (phenol-Ciocalteu's), whose intensity was quantified photometrically. The albumin concentration in the urine was determined by a radioimmunoassay (RIA) specific for albumin. […] The glomerular filtration rate (GFR) was determined by means of the renal ^3H-inulin clearance. […]

The mark [5] stands for this setting: diabetic rats, subchronic treatment.
The mark [6] stands for this setting: diabetic rats, subchronic treatment, 30 mg/kg body weight per day.

Regarding `CC(=CCN1CCN(c2cc(C(F)(F)F)nc(C(C)(C)C)n2)CC1)CSc1nnc(N)n1C` [Example 7], in experiment [1], the albuminuria was found to be 18 µg/day and the proteinuria worked out at 113 mg/day. Moreover, the “pathological protein and albumin excretion” value in experiment [1] (diabetic rats, comparison of the treatment groups) was “markedly reduced”. Besides, in experiment [2], the “structural intrarenal changes occurring in diabetic nephropathy” value (shortened to “structural intrarenal changes occurring”) is given as “abolished” and the “glomerular hypertrophy (enlargement of the glomeruli)” value is listed as “not”. In addition, the “glomerular filtration rate (GFR)” value in experiment [3] is 0.83 mL/min. Further, the “renal hemodynamic changes in the course of diabetic nephropathy” value in experiment [3] (setting [5]) is given as “significant decrease”.
As for `CC(C)(C)c1nc(N2CCN(CCCSc3nccc(O)n3)CC2)cc(C(F)(F)F)n1.O=C(O)/C=C/C(=O)O` [Example 11, 2-(3-(4-(2-t-Butyl-6-trifluoromethyl)pyrimidin-4-yl)piperazin-1-yl)propylmercaptopyrimidin-4-ol fumarate], the “structural intrarenal changes occurring” value in experiment [2] is “abolished”. In experiment [3] (setting [6]), the diabetes-induced renal hyperperfusion entry is “distinctly reduced” and the glomerular hyperfiltration entry is reported as “distinctly reduced”. Further, the kidney wet weight in experiment [4] (diabetic rats treated with D3-A2, nondiabetic 0.9±0.1, DM-VHC 1.1+0.04) is on record as 0.96+0.03 g per 100 g body weight. Besides, the incipient renal hypertrophy entry in experiment [4] (setting [6]) was “distinct reduction”.
In experiment [1], `CCN1CCC[C@H]1CNC(=O)c1cc(S(N)(=O)=O)ccc1OC` [sulpiride, S-sulpiride, reference compound] displayed an albuminuria of 101 µg/day and a proteinuria of 178 mg/day. Also, in experiment [2], the “structural intrarenal changes occurring” value is “not” and the “glomerular hypertrophy (enlargement of the glomeruli)” value is on record as “likewise to be observed”. Further, the “glomerular filtration rate (GFR)” value in experiment [3] is 0.71 mL/min. Further, in experiment [3] (setting [5]), the “renal hemodynamic changes in the course of diabetic nephropathy” value is “significant decrease”.
